Assay results: patent US20230084927A1, “GLUCOSE UPTAKE INHIBITORS AND USES THEREOF” (METABOMED LTD., priority 2019, published 2023)
Like-named read-outs stand apart in the source and are kept apart here.

How the values were obtained:
[1] = tested on: SDH-KO-HRAS cells (SDHB-deficient); assay: Cellular / differential toxicity assay (CellTiter-Glo, 3 days); assay type: cell-based, murine; conditions: toxicity, SDH-KO cells, 3 days, CellTiter-Glo, read-out: EC50 (uM) SDH-KO-HTAS-C17
Method: (§1) Identification of compounds that target specifically SDH-deficient cells was done by screening a library of small-molecule by using a differential toxicity screen with SDHB-proficient vs. SDHB-deficient cells (the […] cells were described in Cardaci 2015).
(§2) Cells Used for the Differential Assays: SDH-WT; SDH-KO-HRAS
(§3) Cell Culture Conditions: • Medium: DMEM-F12 medium+1 mM Glutamine+3% FBS • Plates: 96 well plate—Black, clear flat bottom • Incubation time: 3 days • Compound concentration: 10 point dilution starting from 10 uM to 0.0065 uM or a lower range when needed. • Viability assay at the end of incubation: Celltiter-Glo (CTG) from Promega.
(§4) Protocol: • Day 1: Plate cells in 96 well plate together with the appropriate concentration of compound.
(§5) Incubate for 3 days at 37° C. in 5% CO2 tissue culture incubator. • Day 4: Check viability of cells by adding CTG reagent and read luminescence in plate reader
(§6) SDH-WT and SDH-KO cells were grown in DMEM F12 supplemented with 1 mM Glutamine+3% FBS were treated with different concentrations of the indicated compounds in FIG. 11. Cell viability was determined 72 hours later by CellTiter Glue reagent (Promega), the luminescence was measured with ClarioStar reader (BMG) and the EC50s were calculated by Prism.
as §6, with “compounds.” for “compounds in FIG. 11.”
(§7) The cells were grown in DMEM F12 supplemented with 1 mM Glutamine+3% FBS were treated with different concentrations of the indicated compounds. Cell viability was determined 72 hours later by CellTiter Glue reagent (Promega), the luminescence was measured with ClarioStar reader (BMG) and the EC50s were calculated by Prism. Murine SDHB-WT/KO, HRAS transformed isogenic pair (FIG. 12A); UOK269, Human Tumor-derived SDHB-deficient RCC in their WT counterpart with re-expression of SDHB (FIG. 12B); and ACHN, RCC cells, and their SDHB-KO (SDHB CRISPRed out) isogenic cells (FIG. 12C).

[2] = tested on: SDH-WT cells; assay: as above; assay type: cell-based, murine; conditions: toxicity, SDH-WT cells, 3 days, CellTiter-Glo, read-out: EC50 (uM) SDH-WT
Method: as §1, §2, §3, §4, §5, §6
as §6, with “compounds.” for “compounds in FIG. 11.”
as §7

Compound	EC50 ([1]; Mus musculus, 72 h) [µM]	EC50 ([2]; Mus musculus, 72 h) [µM]	EC50 [1] [µM]	EC50 [2] [µM]
CC(=O)OCC(=O)Cc1ccc(CCNc2ncnc3c2sc2nc4c(cc23)COC(C)(C)C4)cc1[N+](=O)[O-] [Compound 184]	3 to 10	3 to 10	–	–
CNC(=O)c1ccc(CCNc2ncnc3c2sc2nc4c(cc23)COC(C)(C)C4)cc1 [Compound 142]	< 1	3 to 10	–	–
CN1CCC(OCc2c3c(nc4sc5c(NCCc6ccc7[nH]cnc7c6)ncnc5c24)CC(C)(C)OC3)CC1 [Compound 328, N-(2-(1H-Benzo[d]imidazol-5-yl)ethyl)-8,8-dimethyl-11-(((1-methylpiperidin-4-yl)oxy)methyl)-7,10-dihydro-8H-pyrano[3″,4″:5′,6′]pyrido[3′,2′:4,5]thieno[3,2-d]pyrimidin-4-amine]	3 to 10	3 to 10	–	–
CC1(C)Cc2nc3sc4c(NCCc5ccc6[nH]cnc6c5)ncnc4c3c(-c3ccccc3)c2CO1 [Compound 206]	< 1	< 1	–	–
CC(=O)N(C)c1ccc(CCNc2ncnc3c2sc2nc4c(cc23)COC(C)(C)C4)cc1 [Compound 158]	< 1	> 10	–	–
Cc1nc(NCCO)c2sc3nc4c(cc3c2n1)COC(C)(C)C4 [Compound 250]	> 10	> 10	–	–
CC1(C)Cc2nc3sc4c(NCCc5ccc(O)c([N+](=O)[O-])c5)ncnc4c3cc2CO1 [Compound 174]	3 to 10	< 1	–	–
CC1(C)Cc2nc3oc4c(NCCc5ccc6[nH]cnc6c5)ncnc4c3cc2CO1 [Compound 329]	< 1	< 1	–	–
CC(Cc1ccccc1)Nc1ncnc2c1sc1nc3c(cc12)COC(C)(C)C3 (stereo not drawn) [Compound 276]	> 10	3 to 10	–	–
CC1(C)Cc2nc3sc4c(NCCc5ccc6[nH]cnc6c5)ncnc4c3c(COC3CCCC3)c2CO1 [Compound 333]	< 1	1 to 3	–	–
COc1ccc(CCNC(=O)c2sc3nc4c(cc3c2N)COC(C)(C)C4)cc1F [Compound 208]	> 10	> 10	–	–
CCCCCCCCCNc1ncnc2c1sc1nc3c(cc12)COC(C)(C)C3 [Compound 249]	> 10	> 10	–	–
CC(=O)c1nc2cc(CCNc3ncnc4c3sc3nc5c(cc34)COC(C)(C)C5)ccc2[nH]1 [Compound 178]	< 1	3 to 10	–	–
CC1(C)Cc2nc3sc4c(NCCc5ccc6[nH]cnc6c5)ncnc4c3c(CO)c2CO1 [Compound 306]	> 10	> 10	–	–
CC(=O)OC(C)C(=O)Nc1ccc(CCNc2ncnc3c2sc2nc4c(cc23)COC(C)(C)C4)cc1[N+](=O)[O-] (stereo not drawn) [Compound 187]	3 to 10	1 to 3	–	–
COCCNc1ncnc2c1sc1nc3c(cc12)COC(C)(C)C3 [Compound 283]	> 10	> 10	–	–
COc1ccc(CCNc2ncnc3c2sc2nc4c(cc23)COCC4)cc1F [Compound 303]	< 1	> 10	–	–
COc1cc(CCNc2ncnc3c2sc2nc4c(cc23)COC(C)(C)C4)cc(OC)c1 [Compound 102]	3 to 10	> 10	–	–
CC(Nc1ncnc2c1sc1nc3c(cc12)COC(C)(C)C3)c1ccccc1 (stereo not drawn) [Compound 274]	> 10	> 10	–	–
COCCCNc1ncnc2c1sc1nc3c(cc12)COC(C)(C)C3 [Compound 281]	3 to 10	> 10	–	–
COCCOCCOCCOCCOC(=O)c1c2c(nc3sc4c(NCCc5ccc6[nH]cnc6c5)ncnc4c13)CC(C)(C)OC2 [Compound 164]	< 1	3 to 10	–	–

Compound	EC50 ([1]; Mus musculus, 72 h) [µM]	EC50 ([2]; Mus musculus, 72 h) [µM]	EC50 [1] [µM]	EC50 [2] [µM]
Cc1nc2cc(CCNc3ncnc4c3sc3nc5c(cc34)COC(C)(C)C5)ccc2[nH]1 [Compound 194]	< 1	< 1	–	–
Cc1nc(NC(C)c2ccccc2)c2sc3nc4c(cc3c2n1)COC(C)(C)C4 (stereo not drawn) [Compound 272]	> 10	> 10	–	–
CC1(C)Cc2nc3sc4c(NCCc5ccc6occc6c5)ncnc4c3cc2CO1 [Compound 202]	< 1	3 to 10	–	–
COc1cc(CCNc2ncnc3c2sc2nc4c(cc23)COC(C)(C)C4)ccc1F [Compound 121]	3 to 10	> 10	–	–
CC1(C)Cc2nc3sc4c(N5CCNCC5)ncnc4c3cc2CO1 [Compound 136]	> 10	> 10	–	–
CCCCCCCCNc1ncnc2c1sc1nc3c(cc12)COC(C)(C)C3 [Compound 246]	> 10	> 10	–	–
COCCOCCOCCOCCNC(=O)c1c2c(nc3sc4c(NCCc5ccc6[nH]cnc6c5)ncnc4c13)CC(C)(C)OC2 [Compound 317, 4-((2-(1H-Benzo[d]imidazol-5-yl)ethyl)amino)-8,8-dimethyl-N-(2,5,8,11-tetraoxatridecan-13-yl)-7,10-dihydro-8H-pyrano[3″,4″:5′,6′]pyrido[3′,2′:4,5]thieno[3,2-d]pyrimidine-11-carboxamide]	3 to 10	3 to 10	–	–
COc1ccc(CCNc2ncnc3c2sc2nc4c(cc23)CCC4)cc1F [Compound 108, N-(3-Fluoro-4-methoxyphenethyl)-8,9-dihydro-7H-cyclopenta[5′,6′]pyrido-[3′,2′:4,5]thieno[3,2-d]pyrimidin-4-amine]	> 10	1 to 3	–	–
CCCCNc1ncnc2c1sc1nc3c(cc12)COC(C)(C)C3 [Compound 294]	–	–	> 10	> 10
CCCN(CCC)c1ncnc2c1sc1nc3c(cc12)COC(C)(C)C3 [Compound 300]	3 to 10	3 to 10	–	–
CC1(C)Cc2nc3sc4c(NCCc5ccc6[nH]cnc6c5)ncnc4c3c(C(=O)OCCCCCCCC(=O)O)c2CO1 [Compound 210]	3 to 10	< 1	–	–
CSCc1c2c(nc3sc4c(NCCc5ccc6[nH]cnc6c5)ncnc4c13)CC(C)(C)OC2 [Compound 319, N-(2-(1H-Benzo[d]imidazol-5-yl)ethyl)-8,8-dimethyl-11-((methylthio)methyl)-7,10-dihydro-8H-pyrano[3″,4″:5′,6′]pyrido[3′,2′:4,5]thieno[3,2-d]pyrimidin-4-amine]	< 1	1 to 3	–	–
CC(=O)OCC(=O)Cc1ccc(CCNc2ncnc3c2sc2nc4c(cc23)COC(C)(C)C4)cc1N [Compound 183]	< 1	3 to 10	–	–
CCOC(=O)C1CCc2nc3sc4c(NCCc5ccc(OC)c(F)c5)ncnc4c3cc2C1 (stereo not drawn) [Compound 302]	> 10	> 10	–	–
CN(C)CCCNc1ncnc2c1sc1nc3c(cc12)COC(C)(C)C3 [Compound 228]	> 10	> 10	–	–
COc1cccc(OC)c1CCNc1ncnc2c1sc1nc3c(cc12)COC(C)(C)C3 [Compound 162]	< 1	< 1	–	–
COCOCCOCCOCCOCc1c2c(nc3sc4c(NCCc5ccc6[nH]cnc6c5)ncnc4c13)CC(C)(C)OC2 [Compound 213]	1 to 3	> 10	–	–
CC1(C)Cc2nc3sc4c(NCCc5ccc6[nH]c(-c7ccccc7)nc6c5)ncnc4c3cc2CO1 [Compound 190]	1 to 3	< 1	–	–
CC1(C)Cc2nc3sc4c(NCCCN5CCOCC5)ncnc4c3cc2CO1 [Compound 290]	> 10	> 10	–	–
CC1(C)Cc2nc3sc4c(NCCc5ccc(OC(N)=O)cc5)ncnc4c3cc2CO1 [Compound 143]	< 1	> 10	–	–
CC1(C)Cc2nc3sc4c(NCCc5ccc(F)c(F)c5)ncnc4c3cc2CO1 [Compound 120]	> 10	> 10	–	–
